Measurements reported in patent publication US4092420A, “Novel soft N-chloroamino alcohol derivatives exhibiting antibacterial activity” (INTERx Research Corporation, priority 1977, dated 1978).

Legend:
[1] = system: K. pneumoniae; experiment: Minimal inhibitory concentration (MIC), Example V; type: cell-based; conditions: Klebsiella pneumoniae
Procedure: (§1) MINIMAL INHIBITORY CONCENTRATION OF 2-AMINO-2-METHYL-1-PROPYL
(§2) ^a Minimal inhibitory concentration expressed in parts per million
(§3) sequence inhibited the test organism at the higher concentrations.
(§4) THE ANTIBACTERIAL SCREEN - EXAMPLE V
Klebsiella pneumoniae ATCC# 10031
THE ANTIBACTERIAL SCREEN - EXAMPLES W - Z (Autotiter IV)
(a) Compounds. All compounds to be screened are weighed (approx. 10 mg) on the day preceding the test date. Each compound is solubilized on the day of assay in appropriate solvent and diluted automatically in the Autotiter IV with distilled water (buffer can be employed here also).
(§5) Bacteria: Staphylococcus aureas Smith (or 209), Escherichia coli AB 1932-1, 1100/B22 and Vogel, Streptococcus pyogenes C203 Salmonella typhimurium 14028, Bacillus subtilis 6051-1, Klebsiella pneumoniae 10031, Pseudomonas aeruginosa 9027, Bordetella bronchiseptica 4617 and Staphylococcus epidermidis 12228.
(c) Inocula. Prior to utilization in the Autotiter IV, all bacteria are cultured for 18-20 hr. (37° C) in tryptose phosphate broth (TP), except, S. pyogenes C203, which is cultured in Brain Heart Infusion broth plus 10% normal horse serum. Immediately prior to testing, each culture is adjusted to an optical density of 0.10 (650 nm), employing a Bausch & Lomb Spectronic 20, and diluted subsequently into double strength medium to approximately 2 × 10^5 viable organisms per ml.
1. An automated injector system dispenses 0.05 ml of diluent (sterile H2 O or buffer) to all cups of the autotiter trays from rows 2 through 7.
2. The loops (for sequential dilutions of the compounds are moistened by immersion into 70% ethyl alcohol. After removal of excess alcohol by blotting, the loops are moved to the first row of cups in the autotray containing 0.10 ml of the compound to be diluted and tested (usually, this initial concentration is 500 to 1000 mcg/ml, but can be varied upward or downward). The loops are lowered and sequentially transfer the diluted solutions of the compound through row 7.
Immediately after each dilution is made, each cup is automatically inoculated with 0.05 ml of the appropriate test organism. This inoculation derives from a second injector system containing the organism in double-strength medium. The total operation consists of the automatic dilution of a single compound in each of 8 rows of the Autotiter try.
After these operations, we reverse the tray and a second compound is diluted over the other one-half of the tray and inoculated, subsequently, with 8 organisms. Thus, for each Autotiter Tray, two compounds are screened against 8 different organisms at dilutions ranging from 1:2 to 1:128.
(e) Incubation. The inoculated Autotiter trays are incubated at 37° C for 18 - 20 hr. At the end of this period, each tray is examined for the presence or absence of growth (turbidity). The lowest concentration of the compound inhibiting growth is recorded as the minimal inhibitory concentration (MIC).

[2] = system: T. mentagrophytes; experiment: Minimal inhibitory concentration (MIC), Example V; type: cell-based; conditions: Trichophyton mentagrophytes
Text: as §1, §2, §3, §4

[3] = system: E. coli; experiment: Minimal inhibitory concentration (MIC), Example V; type: cell-based; conditions: Escherichia coli
Text: as §1, §2, §3, §4

[4] = system: A. niger; experiment: Minimal inhibitory concentration (MIC), Example V; type: cell-based; conditions: Aspergillus niger
Text: as §1, §2, §3, §4

[5] = system: C. albicans; experiment: Minimal inhibitory concentration (MIC), Example V; type: cell-based; conditions: Candida albicans
Text: MINIMAL INHIBITORY CONCENTRATION OF 2-AMINO-2-METHYL-1-PROPYL […]
as §4

[6] = system: P. aeruginosa; experiment: Contact germicidal efficiency (sterilization time); type: cell-based, Pseudomonas aeruginosa
Procedure: (§6) CONTACT GERMICIDAL EFFICIENCY OF N-CHLORAMINES AS A FUNCTION
(§7) ^a Time intervals screened 0.5, 1, 2, 3, 4 and 5 minutes.
(§8) ^a Time intervals screened 0.5, 1, 2, 3, 4, 5, 6, 7, 8, 9 and 10
(§9) ^a Time intervals screened 0.5, 1, 2, 3, 4, and 5 minutes.
(§10) ^b Time intervals screened 0.5, 1, 2, 3, 4, 5, 6, 7, 8, 9 and 10
(§11) Immediately preceding the screen, the compound is weighed and diluted with a buffer or other solvent to give the final concentration desired. The buffer or solvent chosen depends on the conditions of the screen and could be one of the following: 0.1 M NaOAc, pH 4.6; 0.1 M NaH2 PO4, pH 7.0; 0.1 M Na2 B4 O7, pH 8.8; 35% methanol in one of the aforementioned buffers; 10% Triton × 100 in buffer, etc.
(§12) The positive chlorine concentration of the test solution is then determined iodometrically.
(§13) Media used for the Screen are Nutrient Broth, BBL# 11479 and Nutrient Agar, BBL# 11472 prepared according to label directions. The broth is dispensed in 75 ml amounts of flasks for overnight cultures and in 5 ml amounts to culture tubes for subculturing during the Screen. Agar plates are prepared as usual.
(§14) Overnight cultures are prepared by inoculating from stock cultures into the 75 ml flasks of nutrient broth and incubating for 15 hours at 37° C.
(§15) The iodometrically characterized test solution is dispensed in 5 ml amounts to seven small stoppered flasks. The organisms are screened one at a time as follows:
(§16) A 0.2 ml portion of the overnight culture is inoculated into 5 ml of 0.9% NaCl for use in controls. A 0.2 ml portion of the overnight culture is inoculated into a flask containing 5 ml of the test solution, an automatic timer is simultaneously triggered and the solution mixed. At time intervals of 30 seconds, 1, 2, 3, 4, 5, 6, 7, 8, 9, and 10 minutes a loopful of the inoculated solution is subcultured into 5 ml of sterile nutrient broth and mixed by a Vortex Genie Mixer, the high dilution serving to stop the action of the compound. At the end of the ten minute screen, the entire procedure is repeated for each of the remaining six organisms. All of the subculture tubes are incubated at 37° C and checked for signs of growth by turbidity at 24 hr., 48 hr., 3, 5, and 7 days. The earliest subculture time at which no growth is present in the subculture tube is considered the endpoint and is recorded as that time, e.g., 7 minutes.
(§17) The test solution is prepared and characterized as above but is made up at twice the concentration desired. The solution is diluted 1:1 with Rehydrated Tissue Culture Dessicated Horse Serum, Difco #5357-72 and dispensed in a 5 ml amount to a small flask. The mixture is incubated at Room Temperature for 30 minutes to allow denaturation of the compound by the serum and then screened as above.
(§18) The 5 ml mixture of serum and test solution are prepared in sequence to allow as close to 30 minutes as possible before the beginning of the screen of each organism.
as §5

[7] = system: S. pyogenes; experiment: Minimal inhibitory concentration (MIC), Example V; type: cell-based; conditions: Streptococcus pyogenes
[8] = system: K. pneumoniae; experiment: Contact germicidal efficiency (sterilization time); type: cell-based, Klebsiella pneumoniae
Procedure: as §6, §7, §8, §9, §10, §11, §12, §13, §14, §15, §16, §17, §18, §5

[9] = Example X, pH 4.6, no horse serum, IV c 404 ppm (69 PPMCl+), IV g 489 ppm (143 PPMCl+)
[10] = Example X, pH 7.0, no horse serum, IV c 1886 ppm (323 PPMCl+), IV g 409 ppm (120 PPMCl+)
[11] = Example X, pH 9.3, no horse serum, IV c 1704 ppm (292 PPMCl+), IV g 319 ppm (94 PPMCl+)
[12] = Example Y, pH 4.6, in presence of horse serum, 468 ppm (80 PPMCl+)

SMILES: CC(C)(COC(=O)C(C)(C)C)NCl [IV c, 2-N-Chloroamino-2-methyl-1-propyl 2,2-dimethylproprionate]
- MIC [1]: > 250 µg/mL
- MIC [2]: > 250 µg/mL
- MIC [3]: > 250 µg/mL
- MIC [4]: > 250 µg/mL
- MIC [5]: > 250 µg/mL
- Sterilization Time [6, 9]: 0.5 min
- Sterilization Time [6, 10]: 1 min
- Sterilization Time [6, 11]: 1 min
- Sterilization Time [6, 12]: > 10 min
- MIC [7]: > 125 µg/mL
- Sterilization Time [8, 9]: 0.5 min
- Sterilization Time [8, 10]: 2 min
- Sterilization Time [8, 11]: 2 min
- Sterilization Time [8, 12]: > 10 min
